Where a chain is given by its changes, count along the chain named.

The test system of data set [1] is primary cultured rat cerebral neurocytes. Description: Ganglioside content (ganglioside-binding sialic acid) of primary cultured neurocytes. The format is cell-based. How it is done: Rat fetuses at the 18th day of pregnancy were taken out, and forebrain base portions of the fetuses were extracted aseptically and cut into small pieces by scissors. After the pieces were treated with papain (in a phosphate buffer containing 0.02% L-cysteine containing 180 U papain, 0.02% bovine serum albumin and 0.5% glucose, pH 7.4, at 37° C. for 30 minutes), they were washed with a mixed solution (DF medium) of 1:1 of a Dulbecco modified Eagle's medium and a Ham's F12 medium and suspended in a DF medium containing 5% bovine fetal serum and 5% equine serum. This neurocyte suspension was charged into a culture plate with 24 wells (Falcon, Primaria) in an amount of 1×10^6 cells/well. […] After completion of the culture, the cells in the respective wells were washed with a phosphate buffer and recovered by rubber policeman. Further, a ganglioside fraction was extracted by adding chloroform/methanol/water (1:2:0.8) and shaking the mixture for 5 minutes. […] The no addition group (control) which was defined as 100% was compared with the test groups, and the results are shown in Table 1.

Data set [2] relates to rat cerebral cortex neurocytes. Nature of the data set: Synapse formation measured as frequency of intracellular Ca2+ fluctuation. Particulars: FIG. 4. The format is cell-based. An excerpt: Further, as a method of measuring synapse formation relatively simply and easily, there has been developed a multipoint observation system of Ca^2+ in neurocytes using Fura-2, and it has been confirmed that the number of synapse formation is in direct proportion to frequency of intracellular Ca^2+ fluctuation in synchronization therewith (Br. J. Pharmacol., 89, 191-198, 1986; Neurosci. Lett., 78, 69-74, 1987). We investigated influences of L-threo-FDMP and D-threo-PDMP exerted on synapse formation between rat cerebral cortex neurocytes by using this method, and the results are shown below.

In data set [3] the target is T1, GlcCer (glucosylceramide) synthase (Rattus norvegicus, UniProt Q9R0E0).
T1 construct: primary culture of cerebral cortex tissue specimens of Wister albino rats; endogenous in cells; host or cells: primary culture of rat (Wistar) cerebral cortex, sonicated after 40 h with compound
T1 sequence (Q9R0E0 1-394): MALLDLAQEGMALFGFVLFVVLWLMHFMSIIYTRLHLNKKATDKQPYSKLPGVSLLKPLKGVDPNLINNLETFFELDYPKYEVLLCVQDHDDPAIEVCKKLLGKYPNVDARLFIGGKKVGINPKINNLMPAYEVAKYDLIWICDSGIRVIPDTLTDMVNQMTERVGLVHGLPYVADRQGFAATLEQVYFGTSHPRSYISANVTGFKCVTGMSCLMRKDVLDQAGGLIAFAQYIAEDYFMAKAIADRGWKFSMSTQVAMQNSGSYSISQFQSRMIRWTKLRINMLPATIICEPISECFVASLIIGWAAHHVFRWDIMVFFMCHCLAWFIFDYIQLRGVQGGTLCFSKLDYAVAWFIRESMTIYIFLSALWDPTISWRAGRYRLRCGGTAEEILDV
Nature of the data set: Enzyme activity in treated cerebral cortex culture: GlcCer synthase. The format is cell-based. The conditions noted are these: culture treated with 15 μM for 40 hours. How it is done:
(§1) After the mixture was cultured for 40 hours, the resulting culture was harvested and pulverized in a homogenized buffer (50 mM Hepes, 0.32M sucrose) by using a chip type sonicator to prepare an enzyme source.
After ^3 H-GlcCer which was a reaction product was extracted with t-butyl methyl ether, the extract was concentrated and evaporated to dryness, and its radioactivity was measured.

Data set [4] has as its system LacCer (lactosylceramide) synthase. Nature of the data set: Enzyme activity in treated cerebral cortex culture: LacCer synthase. Particulars: culture treated with 15 μM for 40 hours. The format is cell-based, rat. The protocol: as §1
GlcCer as an acceptor substrate was reacted with 0.315mM UDP (uridine diphosphate)-^3 H galactose (2.7×10^8 cpm) as a donor substrate. After the mixture containing ^3 H-LacCer which was a reaction product was developed by a silica gel thin layer plate, a portion corresponding to the reaction product was scratched off, and its radioactivity was counted.

The test system of data set [5] is GM3 synthase. Nature of the data set: Enzyme activity in treated cerebral cortex culture: GM3 synthase. Format: cell-based, rat. The conditions noted are these: culture treated with 15 μM for 40 hours. The protocol: as §1
After the mixture containing a reaction product was developed by a reverse phase thin layer plate, a portion corresponding to the reaction product was scratched off, and its radioactivity was counted.

In data set [6] the test system is GD3 synthase. Description: Enzyme activity in treated cerebral cortex culture: GD3 synthase. Format: cell-based, rat. The conditions noted are these: culture treated with 15 μM for 40 hours. The protocol:
as §1
GM3 as an acceptor substrate was reacted with 30 mM CMP-^14 C sialic acid (2.88×10^6 cpm) as a donor substrate. After the mixture containing a reaction product was developed by a reverse phase thin layer plate, a portion corresponding to the reaction product was scratched off, and its radioactivity was counted.

The test system of data set [7] is serine palmitoyltransferase. Nature of the data set: Enzyme activity in treated cerebral cortex culture: serine palmitoyltransferase. Format: cell-based, rat. The conditions noted are these: culture treated with 15 μM for 40 hours. The protocol: as §1
1.5 mM palmitoyl CoA (coenzyme A) and 0.1 mM ^14 C serine (8.3×10^5 cpm) were reacted in the presence of 0.5 mM pyridoxalphosphoric acid. After 3-keto-sphingosine which was a reaction product was extracted, the extract was concentrated and evaporated to dryness, and its radioactivity was counted.

Data set [8] deals with acyl-CoA: sphingosine N-acyltransferase. Nature of the data set: Enzyme activity in treated cerebral cortex culture: acyl-CoA: sphingosine N-acyltransferase. The format is cell-based, rat. The conditions noted are these: culture treated with 15 μM for 40 hours. How it is done: as §1
0.25 mM sphingosine and 0.45 mM ^14 C palmitoyl CoA (8.3×10^5cpm) were reacted in the presence of ATP (adenosine 5'-triphosphate). After ceramide which was a reaction product was subjected to solvent extraction, the extract was concentrated and evaporated to dryness, and its radioactivity was counted.

The subject of data set [9] is explants. Description: Neurite-extending activity in explants (Example 6). The format is cell-based. The conditions noted are these: 5 μM to 15 μM, cultured for 40 hours, FIG. 5. The protocol: 1.6×10^5 cells/well of explants were sowed in a plate with 24 wells containing a DMEM medium. […] After the mixture was cultured for 40 hours, the resulting culture was fixed and then dyed with Coomassie, and nervous fibers extended to have a length which was longer than a diameter of […] were counted.

Data set [10] addresses T2, glucosylceramide biosynthesizing enzyme (Mus musculus, UniProt O88693).
T2 sequence (O88693 1-394): T1 sequence (Q9R0E0 1-394) with E96D, R164K, K249R, A377T
Particulars: J. Lipid. Res., vol. 28, pp. 565-571, 1987; cited from earlier work.

In data set [11] the test system is GSL. The conditions noted are these: J. Lipid. Res., vol. 28, pp. 565-571, 1987; cited from earlier work.
Data set [12] relates to neurites. Particulars: J. Biochem., vol. 110, pp. 96-103, 1991; cited from earlier work.
In data set [13] the test system is rats with spacial recognition disorder caused by repeated cerebral ischemia. Nature of the data set: Maze radiated in 8 directions after repeated cerebral ischemia (Example 9). Format: in vivo. Particulars: 40 mg/kg i.p. twice a day for 6 days. The protocol: Wister albino male rats (weight: 250 to 280 g) were used, and training of a task of a maze which was radiated in 8 directions was conducted once a day to make the rats acquire spacial recognition. The rats which had acquired spacial recognition were subjected to cauterization of vertebral arteries and operation of peeling common carotid arteries according to the method of Pulsinelli, Brierly, et al. (Stroke, vol. 10, p. 267, 1979). […] The ischemia treatment was carried out by repeating ischemia twice, i.e., ligating common carotid arteries for 10 minutes by using clips without anesthesia and further ligating them for 10 minutes after 1 hour from restarting of blood flow. Retention trial was carried out one week after the ischemia treatment, and the results were represented by the number of correct choices among first 8 choices, whether all of 8 baits were taken or not, or the number of errors within an observation period a maximum of which was 10 minutes. Further, a pharmaceutical effect was evaluated by 3 ranks, i.e., remarkably effective (showing that the number of correct choices is 7 or more and the number of errors is 1 or less), effective (showing that the number of correct choices is 7 or more and the number of errors is 2 or 3) and ineffective (showing that the number of errors is 4 or more), and represented as an improvement rate thereof.
In the above experiment, examined was influence of continuous administration of 40 mg/kg of PDMP (i.p.) twice a day for 6 days started after 24 hours from the ischemia treatment, which was exerted on the spacial recognition disorder one week after the repeated cerebral ischemia, in the task of the maze which was radiated in 8 directions using the rats.

Data set [14] relates to ICR mice. Nature of the data set: General toxicity, continuous 10-day intraperitoneal administration. Format: in vivo. The conditions noted are these: 100 mg/kg/day intraperitoneally for 10 days.
Setting [15] is: started 24 hours after ischemia, retention trial one week after ischemia, FIG. 7.

As to `CCCCCCCCCC(=O)N[C@H](CN1CCOCC1)[C@H](O)c1ccccc1` [D-threo-PDMP, 1-phenyl-2-decanoylamino-3-morpholino-1-propanol], in data set [1] (20 μM, 3 days), the “ganglioside level as compared with that of the control” value is reported as “decrease in the ganglioside level”. Moreover, in data set [1] (Rattus norvegicus, 72 h, culture for 3 days, control defined as 100%), the activity at 20 µM stood at 63.4%. The “number of synapse formation (frequency of intracellular Ca2+ fluctuation)” value in data set [2] was “suppressedly acted on synapse formation”. Further, the “Accelerating activity when enzyme activity of control is defined as 100%: GlcCer-synthase” value in data set [3] is given as “no change in the activities was observed”. Moreover, in data set [4], the “Accelerating activity when enzyme activity of control is defined as 100%: LacCer synthase” value is “no change in the activities was observed”. In [5], the “Accelerating activity when enzyme activity of control is defined as 100%: GM3 synthase” value is “no change in the activities was observed”. The “Accelerating activity when enzyme activity of control is defined as 100%: GD3 synthase” value in [6] was “no change in the activities was observed”. The “Accelerating activity when enzyme activity of control is defined as 100%: Serine palmitoyltransferase” value in [7] is “no change in the activities was observed”. Besides, in [8], the “Accelerating activity when enzyme activity of control is defined as 100%: Acyl-CoA: sphigosine N-acyltransferase” value is “no change in the activities was observed”. For the same compound, in [9], the “effect on neurite extension” value is “moderate suppression of neurite extension”. The “inhibition of glucosylceramide biosynthesizing enzyme” value in data set [10] is “specifically inhibits a glucosylceramide biosynthesizing enzyme”. The “intracellular content of all GSL” value in [11] is reported as “extremely decreases an intracellular content of all GSL”. For the same compound, in data set [12], the extension of neurites result is “extension of neurites is suppressed”.

For the compound `CCCCCCCCCC(=O)NC(CN1CCOCC1)C(O)c1ccccc1` (stereo not drawn) [PDMP, 1-phenyl-2-decanoylamino-3-morpholino-1-propanol], in data set [13] (setting [15]), the “number of the correct choices versus vehicle group” value is given as “increase of the number of the correct choices” and the “number of the errors versus vehicle group” value is on record as “decrease of the number of the errors”. In data set [13] (4/8 rats, FIG. 8), the “improvement rate: rats in the remarkably effective rank” value is recorded as 50%.

On to `CCCCCCCCCC(=O)N[C@H](CN1CCOCC1)[C@H](O)c1ccccc1` (relative stereo) [DL-threo-PDMP, 1-phenyl-2-decanoylamino-3-morpholino-1-propanol], for which the “decrease in weight / decrease in neutrophile, acidocyte due to suppression of bone marrow” value in data set [14] (in Myrj 52) is “neither decrease in weight nor decrease in neutrophile, acidocyte, etc. due to suppression of bone marrow was observed”. Further, in data set [14] (observation for 3 months), the “abnormality on observation for 3 months” value is “no abnormality was observed”.

The values are drawn from patent publication US5849326A, “Method for treating neuronal diseases via administration of 2-acylaminopropanol derivatives” (Seikagaku Corporation, priority 1993, dated 1998).
